The results in this text go back to patent US20120093876A1, “Ophthalmic Formulations, Methods Of Manufacture And Methods of Normalizing Meibomian Gland Secretions” (Aciex, Inc., priority 2010, published 2012).

Where a name gives a salt, the structure may show the parent alone.

The nature of series [1]: Excipient compatibility stability screen, minocycline quantitated by HPLC. Conditions: in mineral oil, relative to castor and olive oil.
Series [2] can be described thus: Batch uniformity and stability of micronized and unmicronized oil and ointment formulations. The series is classed as physicochemical. The following applies: jetmilling or cryomilling; 2 batches of drug substance. The protocol: Two Minocycline HCl drug substance batches were micronized (by jetmilling and cryomilling) and evaluated for chemical properties post-micronization. Jetmilled, cryomilled, and unmicronized oil and ointment formulations were evaluated for batch uniformity and stability.
Oil formulations were 100% oil and ointments were 100% petrolatum. […]. […] evaluated with respect to solubility in light mineral oil.
[…]. The oil suspensions in this study provided consistent T0 results, unlike the earlier oil formulations with unmicronized Minocycline HCl.

Series [3] in a line: Degradation after e-beam irradiation. The series is classed as physicochemical. Conditions: suspended in light mineral oil; single-point testing following irradiation. The source says:
(§1) The purpose of this study was to investigate the feasibility of formulating Minocycline HCl in a ‘gelment’ with a medicated swab container closure. Specifically, formulation feasibility and stability with hydrophilic bases (PEG 400, propylene glycol, glycerol) investigated. Glycerin was unacceptable from a comfort perspective. […] (Following 3 weeks at 25/40, epi-minocycline was 20.7% for PEG 400 base and 2.9% for propylene glycol base.) Degradation was not detected following e-beam irradiation of Minocycline suspended in light mineral oil (single-point testing performed following irradiation—no stability evaluation).

Series [4] in a line: Comfort of hydrophilic excipient bases. It counts as in vivo. The following applies: hydrophilic base.
Text: as §1

Regarding `CN(C)c1ccc(O)c2c1C[C@H]1C[C@H]3[C@H](N(C)C)C(O)=C(C(N)=O)C(=O)[C@@]3(O)C(O)=C1C2=O` [Minocycline HCl], in series [1], the “Stability (degree of epimerization) in excipient” value is “greatest stability”. Further, the “Change in assay following micronization” value in series [2] was “No change”. In addition, the “Degradation following e-beam irradiation” value in series [3] was “not detected”.
On to `OCC(O)CO` [Glycerin], for which the Comfort result in series [4] was “unacceptable”.
